We go through six molecules from patent US9334290B2, “Substituted tetrahydrocarbazole and carbazole carboxamide compounds” (Bristol-Myers Squibb Company, priority 2013, dated 2016).

Read-outs that look alike come from different tables or passages of the source.

In experiment [1] the test system is CD69 expression on B cells in human whole blood. The experiment can be described thus: Whole blood assay of BCR-stimulated CD69 expression on B cells. It is filed as cell-based. Conditions: BCR-stimulated, read-out: CD69 IC50 values.
The target of experiment [2] is Jak2 tyrosine kinase (Homo sapiens (Human), UniProt O60674). Briefly: Jak2 tyrosine kinase assay. To be noted: for Ratio of Jak2/Btk IC50 values: selectivity of Btk over Jak2. The class given is biochemical.
Sequence of Jak2 tyrosine kinase (O60674 whole entry): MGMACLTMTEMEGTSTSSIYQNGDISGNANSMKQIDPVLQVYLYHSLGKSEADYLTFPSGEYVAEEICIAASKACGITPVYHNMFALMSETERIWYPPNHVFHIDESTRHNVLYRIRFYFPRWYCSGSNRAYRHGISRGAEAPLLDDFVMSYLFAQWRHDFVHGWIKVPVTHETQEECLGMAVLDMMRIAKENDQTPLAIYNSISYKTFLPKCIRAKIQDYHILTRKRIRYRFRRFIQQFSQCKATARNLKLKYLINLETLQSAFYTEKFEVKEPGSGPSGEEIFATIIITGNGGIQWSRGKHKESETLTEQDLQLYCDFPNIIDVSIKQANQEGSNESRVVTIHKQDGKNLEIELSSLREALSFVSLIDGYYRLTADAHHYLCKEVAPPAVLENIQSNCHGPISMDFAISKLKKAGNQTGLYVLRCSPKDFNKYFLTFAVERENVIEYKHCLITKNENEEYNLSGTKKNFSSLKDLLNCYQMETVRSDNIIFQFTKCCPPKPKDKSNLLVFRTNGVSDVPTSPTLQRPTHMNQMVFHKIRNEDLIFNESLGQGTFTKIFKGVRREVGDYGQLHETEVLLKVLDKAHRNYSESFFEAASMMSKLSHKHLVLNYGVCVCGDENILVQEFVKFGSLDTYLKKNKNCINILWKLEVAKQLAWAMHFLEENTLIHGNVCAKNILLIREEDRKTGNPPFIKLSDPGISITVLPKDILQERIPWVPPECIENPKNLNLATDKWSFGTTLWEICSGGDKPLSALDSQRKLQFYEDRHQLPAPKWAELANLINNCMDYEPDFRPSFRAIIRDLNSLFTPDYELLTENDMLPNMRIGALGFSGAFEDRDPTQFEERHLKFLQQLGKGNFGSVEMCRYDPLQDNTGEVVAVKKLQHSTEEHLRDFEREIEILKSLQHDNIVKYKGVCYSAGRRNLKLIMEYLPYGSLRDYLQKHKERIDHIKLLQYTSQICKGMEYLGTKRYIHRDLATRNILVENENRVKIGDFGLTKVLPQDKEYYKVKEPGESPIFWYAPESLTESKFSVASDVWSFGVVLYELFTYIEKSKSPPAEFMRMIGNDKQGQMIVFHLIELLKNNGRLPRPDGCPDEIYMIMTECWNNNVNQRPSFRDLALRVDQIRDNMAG
The target in experiment [3] is human recombinant Btk (Homo sapiens (Human), UniProt Q06187). The experiment can be described thus: Human Recombinant Btk enzyme assay. Conditions: read-out: Btk IC50 value. It is filed as biochemical.
Sequence of human recombinant Btk (Q06187 whole entry): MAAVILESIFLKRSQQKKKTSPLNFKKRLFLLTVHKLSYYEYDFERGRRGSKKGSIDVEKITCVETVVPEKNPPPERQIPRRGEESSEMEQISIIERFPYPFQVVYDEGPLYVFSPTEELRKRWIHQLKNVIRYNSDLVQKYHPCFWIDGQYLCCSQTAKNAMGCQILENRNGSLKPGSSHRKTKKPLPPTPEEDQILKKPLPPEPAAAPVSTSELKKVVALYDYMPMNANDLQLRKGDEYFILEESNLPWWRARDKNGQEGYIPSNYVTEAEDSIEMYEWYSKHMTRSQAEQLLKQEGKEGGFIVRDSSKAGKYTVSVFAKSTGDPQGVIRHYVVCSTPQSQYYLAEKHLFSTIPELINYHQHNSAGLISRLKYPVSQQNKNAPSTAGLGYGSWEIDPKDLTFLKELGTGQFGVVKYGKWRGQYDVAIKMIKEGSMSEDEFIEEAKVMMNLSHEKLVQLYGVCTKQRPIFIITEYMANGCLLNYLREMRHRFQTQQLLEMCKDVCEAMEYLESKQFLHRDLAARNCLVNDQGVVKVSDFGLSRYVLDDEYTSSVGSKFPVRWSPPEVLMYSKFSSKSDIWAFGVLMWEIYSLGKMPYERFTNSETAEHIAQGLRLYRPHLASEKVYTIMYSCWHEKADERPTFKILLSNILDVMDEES

Take `Cc1c(-c2c(Cl)cc(C(N)=O)c3[nH]c4cc(C(C)(C)O)ccc4c23)cccc1-n1c(=O)cc2sccn2c1=O` (single isomer, unassigned) [Example 38]: the IC50 in experiment [1] came to 53 nM; in experiment [2] it was 300 nM; in experiment [3], 0.34 nM. In addition, the “Ratio of Jak2/Btk IC50 values” in experiment [2] amounted to 880.

Consider `Cc1c(-c2c(Cl)cc(C(N)=O)c3[nH]c4cc(C(C)(C)O)ccc4c23)cccc1-n1c(=O)cc2sccn2c1=O` (single isomer, unassigned) [Example 39], for which the 50% inhibitory concentration (IC50) turned out to be 130 nM in experiment [1], 370 nM in experiment [2] and 0.31 nM in experiment [3]. Also, the “Ratio of Jak2/Btk IC50 values” in experiment [2] worked out at 1200.

Regarding `Cc1c(-c2c(F)cc(C(N)=O)c3[nH]c4cc(C(C)(C)O)ccc4c23)cccc1-n1c(=O)cc2c(F)cccn2c1=O` (single isomer, unassigned) [Example 40], the IC50 in experiment [1] (Homo sapiens, B-cell) came to 19 nM; in experiment [2] it was 830 nM; in experiment [3] it was 0.46 nM. Further, the “Ratio of Jak2/Btk IC50 values” in experiment [2] is reported as 1800.

Turning to `Cc1c(-c2c(F)cc(C(N)=O)c3[nH]c4cc(C(C)(C)O)ccc4c23)cccc1-n1c(=O)cc2c(F)cccn2c1=O` (single isomer, unassigned) [Example 41], the figures for the IC50 in experiment [1], in experiment [2] and in experiment [3] were 22 nM, 800 nM and 0.2 nM, respectively. Besides, the “Ratio of Jak2/Btk IC50 values” in experiment [2] was found to be 4000.

`Cc1c(-c2c(F)cc(C(N)=O)c3[nH]c4c(c23)CC[C@H](C(C)(C)O)C4)cccc1-n1c(=O)cc2c(F)cccn2c1=O` (single isomer, unassigned) [Example 69]: the IC50 in experiment [1] amounted to 150 nM; in experiment [2] it was 9500 nM; in experiment [3], 0.84 nM. In experiment [2], the “Ratio of Jak2/Btk IC50 values” was 11000.

For `Cc1c(-c2c(Cl)cc(C(N)=O)c3[nH]c4cc(C(C)(C)O)ccc4c23)cccc1-n1c(=O)cc2c(F)cccn2c1=O` [Example 34, 3-Chloro-4-(3-(5-fluoro-1,3-dioxo-1H-pyrido[1,2-c]pyrimidin-2(3H)-yl)-2-methylphenyl)-7-(2-hydroxypropan-2-yl)-9H-carbazole-1-carboxamide], the IC50 in experiment [1] (Homo sapiens, B-cell) worked out at 98 nM; in experiment [2] it was 370 nM; in experiment [3], 0.85 nM. Also, the “Ratio of Jak2/Btk IC50 values” in experiment [2] was determined as 440.
